Assay results taken from US20240036032A1, “PREDICTIVE IN VITRO ASSAY MIMICKING IN VIVO PHARMACOLOGY” (MIMI-Q GMBH, priority 2020, published 2024).
Where two headings read alike, the source gives them in different places. Marks after values point to notes of the source that are not given here.

Key:
[1] = Clinical pharmacokinetics parameters of mFOLFOX6 active substances from published data; format: in vivo, Humans; conditions: 5-fluorouracil bolus, sequence number 2, calculated to a dose of 400 mg/m^2 assuming linear kinetics
Protocol: Pharmacokinetics parameters for all substances presented in Table 3 were identified based on published data. Substances of administration 1 (Oxaliplatin) and 2 (5-Fluorouracil) present simultaneously in the body, so time point of addition of 2 (5-Fluorouracil) was selected in a timeframe of selected incubation time for 1 (Oxaliplatin). Substances of administration 2 (5-Fluorouracil) and 3 (5-Fluorouracil) also present simultaneously in the body, so time point of addition of 3 (5-Fluorouracil) was selected in a timeframe of selected duration of exposure for 2 (5-Fluorouracil).

[2] = cited from earlier work
[3] = test system: colon cancer organoids; assay: Half growth inhibitory concentration (GI50): serial dilutions, 72 hours, MTS assay; format: cell-based, human (patient)
Protocol: A patient was diagnosed with colon cancer and mFOLFOX6 chemotherapeutic treatment was prescribed. To obtain primary organoid culture of colon cancer cells a sample of resected lung metastasis was used. Tissue was cut into small fragments and placed immediately into MACS tissue storage solution (Miltenyi Biotec, Germany) and stored for no more than 24 hours at 4° C. Then, the tissue fragments were transferred to a tube for tissue homogenization gentleMACS C Tube (Miltenyi Biotec, Germany) and enzyme cocktail from Tumor Dissociation Kit human (Miltenyi Biotec, Germany) consisting of 2.2 ml of DMEM/F-12 culture medium (Thermo Fisher Scientific, USA), 100 μl of Enzyme H solution (Miltenyi Biotec, Germany), 50 μl of Enzyme R solution (Miltenyi Biotec, Germany) and 12.5 μl of Enzyme A solution (Miltenyi Biotec, Germany) was added to the same tube. Then the tube was tightly closed with a lid and placed in gentleMACS Octo Dissociator (Miltenyi Biotec, Germany). For tissue dissociation, the “37C_h_TDK_3” program was used. […]
Organoids were diluted in Matrigel Growth Factor Reduced (GFR) Basement Membrane Matrix (Corning, USA) and seeded into 96-well plate (TPP, Switzerland). […] Relative number of cells was measured with MTS assay CellTiter 96 Aqueous One Solution Cell Proliferation Assay kit (Promega, USA) according to the manufacturer's instructions (FIG. 2). […]

[4] = test system: chemo-resistant metastatic CRC; conditions: absence of genetic selection; cited from earlier work
[5] = NCI Database; cited from earlier work
[6] = 5-fluorouracil continuous infusion, sequence number 3
[7] = oxaliplatin infusion, mFOLFOX6, sequence number 1

For `O=c1[nH]cc(F)c(=O)[nH]1` [5-Fluorouracil, 5-fluorouracil], the Area under curve [1] is given as 82.1* μM·, the Cmax ([1]; human, in vivo, intravenous, 400 mg/m2) is given as 273 µM and the Area under curve [2, 6] is given as 156.4 µM. For the same compound, the Cmax [2, 6] was 5.5 µM, the “sensitivity of organoids judged from GI50” value ([3]; Example 3, FIG. 3b) was “sensitive” and the GI50 ([3]; Homo sapiens, Example 3, organoids from resected lung metastasis, 72 hours incubation) was 2260 nM.

In the case of `O=C1[O][Pt]2([NH][C@@H]3CCCC[C@H]3[NH]2)[O]C1=O` [Oxaliplatin], the Area under curve [2, 7] is given as 6.8 µM and the Cmax [2, 7] is given as 3.6 µM.

In the case of panitumumab: anti-EGFR therapy drug, the “patients responding to anti-EGFR therapy” value [4] is given as 10%.

In the case of `Nc1nc2c(c(=O)[nH]1)N(C=O)C(CNc1ccc(C(=O)N[C@@H](CCC(=O)O)C(=O)O)cc1)CN2` (stereo partly shown) [Leucovorin, Leucovorin Calcium (Folinic Acid)], the “direct cytotoxic or cytostatic effect” value [5] is given as “does not possess direct cytotoxic or cytostatic effect”.
